Columns and labels:
Sphaerotheca fuliginea [1] = assay: Example A: in vivo preventive test on Sphaerotheca fuliginea (cucumber); settings: 500 ppm of active ingredient, evaluated 7 days after inoculation
Protocol: In Vivo Preventive Test on Sphaerotheca fuliginea (Cucumber) Solvent: 49 parts by weight of N,N-dimethylformamide Emulsifier: 1 part by weight of alkylarylpolyglycolether To produce a suitable preparation of active compound, 1 part by weight of active compound is mixed with the stated amounts of solvent and emulsifier, and the concentrate is diluted with water to the desired concentration. To test for preventive activity, young plants are sprayed with the preparation of active compound at the stated rate of application. One day after this treatment, the plants are inoculated with an aqueous spore suspension of Sphaerotheca fuliginea. Then the plants are placed in a greenhouse at approximately 23° C. and a relative atmospheric humidity of approximately 70%.

Alternaria solani = assay: Example C: in vivo preventive test on Alternaria solani (tomato); settings: 500 ppm of active ingredient, evaluated 7 days after inoculation
Summary of the method: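 Young tomato plants sprayed preventively with compound formulated in DMF/emulsifier and diluted with water, then inoculated one day later with Alternaria solani spores. Plants were held one day at about 22° C, 100% humidity, then at about 20° C, 96% humidity.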

Pyrenophora teres [2] = assay: Example E: in vivo preventive test on Pyrenophora teres (barley), DMF/emulsifier preparation; settings: 500 ppm of active ingredient, evaluated 7-9 days after inoculation
Summary of the method: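 Young barley plants sprayed preventively with compound formulated in DMF/alkylaryl polyglycol ether emulsifier and diluted in water. One day later inoculated with aqueous Pyrenophora teres spore suspension, then held 48 h at 22 °C and 100% relative humidity.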

Sphaerotheca fuliginea [3] = assay: Example B: in vivo preventive test on Sphaerotheca fuliginea (powdery mildew on cucurbits), gherkin plants; settings: 500 ppm of active ingredient, grading 12 days after contamination
Summary of the method: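 Gherkin plants grown at 24 °C were sprayed with compound at the Z11 cotyledon stage; controls received acetone/tween/DMSO/water without active. 24 h later, cotyledons were inoculated by spraying with Sphaerotheca fuliginea spores (100 000 spores per mL).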

Pyrenophora teres [4] = assay: Example F: in vivo preventive test on Pyrenophora teres (barley), acetone/tween/DMSO preparation; settings: 500 ppm of active ingredient, barley, grading 14 days after contamination
Summary of the method: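 Barley ("Plaisant") grown at 22° C was sprayed at the 1-leaf stage (10 cm) with active ingredient in acetone/tween/DMSO/water, with solvent-only controls. After 24 h, leaves were inoculated with Pyrenophora teres spores (12 000 spores per mL) from 12-day cultures. % efficacy versus controls graded 14 days post-contamination.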

Uromyces appendiculatus = assay: Example Q: in vivo preventive test on Uromyces appendiculatus (bean rust); settings: Uromyces appendiculatus on bean plants, 500 ppm of active ingredient, grading 11 days after contamination
Protocol: In Vivo Preventive Test on Uromyces appendiculatus (Bean Rust) […] Bean plants (“Saxa” variety), sown in starter cups on a 50/50 peat soil pozzolana substrate and grown at 24° C., are treated at the 2 leaf stage (9 cm height) by spraying with the active ingredient prepared as described above. Plants, used as controls, are treated with the mixture of acetone/tween/DMSO/water not containing the active material. After 24 hours, the plants are contaminated by spraying the leaves with an aqueous suspension of Uromyces appendiculatus spores (150 000 spores per mL). The spores are collected from infected plants and are suspended in water containing 2.5 mL/L of Tween 80 at 10%. […] Grading (% of efficacy) is carried out 11 days after the contamination, in comparison with the control plants.

Botrytis cinerea = assay: Example P: in vivo preventive test on Botrytis cinerea (grey mould), gherkin plants; settings: 500 ppm of active ingredient, grading 4 to 5 days after contamination
Protocol: In Vivo Preventive Test on Botrytis cinerea (Grey Mould) […] Gherkin plants (“Vert petit de Paris” variety), sown in starter cups on a 50/50 peat soil pozzolana substrate and grown at 24° C. are treated at the Z11 cotyledon stage by spraying with the active ingredient prepared as described above. Plants, used as controls, are treated with the mixture of acetone/tween/DMSO/water not containing the active material. After 24 hours, the plants are contaminated by spraying the cotyledons with an aqueous suspension of cryopreserved Botrytis cinerea spores (50 000 spores per mL). The spores are suspended in a nutrient solution composed of 10 g/L of PDB, 50 g/L of D-Fructose, 2 g/L of NH4NO3 and 1 g/L of KH2PO4. The contaminated gherkin plants are incubated at 17° C. and at 90% relative humidity. Grading (% of efficacy) is carried out 4 to 5 days after the contamination, in comparison with the control plants.

Alternaria brassicae = assay: Example D: in vivo preventive test on Alternaria brassicae (leaf spot on radish); settings: 500 ppm of active ingredient, grading 6 days after contamination
Protocol: In Vivo Preventive Test on Alternaria brassicae (Leaf Spot on Radish) […] Radish plants (“Pernod Clair” variety), sown in starter cups on a 50/50 peat soil pozzolana substrate and grown at 17° C., are treated at the cotyledon stage by spraying with the active ingredient prepared as described above. Plants, used as controls, are treated with the mixture of acetone/tween/DMSO/water not containing the active material. After 24 hours, the plants are contaminated by spraying the cotyledons with an aqueous suspension of Alternaria brassicae spores (50 000 spores per mL). The spores are collected from a 15-day-old culture. The contaminated radish plants are incubated at 20° C. and at 100% relative humidity. Grading (% of efficacy) is carried out 6 days after the contamination, in comparison with the control plants.

Septoria tritici = assay: Example I: in vivo preventive test on Septoria tritici (wheat), acetone/tween/DMSO preparation; settings: 500 ppm of active ingredient, grading 24 days after contamination
Summary of the method: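 Scipion wheat grown at 22° C, sprayed at 1-leaf stage (10 cm); controls received acetone/tween/DMSO/water without active. Inoculated 24 h later with S. tritici spores (500 000/mL), held 72 h at 18° C, 100% RH, then 21 days at 90% RH. % efficacy vs controls scored 24 days post-inoculation.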

Puccinia recondita = assay: Example M: in vivo preventive test on Puccinia recondita (brown rust on wheat); settings: 500 ppm of active ingredient, grading 12 days after contamination
Summary of the method: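 Wheat (Scipion) sprayed with compound at 1-leaf stage, grown at 22° C. Inoculated 24 h later with a spore suspension at 100 000 spores per mL. Efficacy (%) graded 12 days after inoculation against solvent-treated controls.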

[5] = log P by HPLC on reversed-phase column (C 18), EEC Directive 79831 Annex V.A8; type: physicochemical; settings: HPLC reversed-phase C 18, 40° C., 0.1% aqueous formic acid and acetonitrile gradient; several values = mixture of two or more isomers
Summary of the method: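 Reversed-phase C18 HPLC at 40° C, 0.1% aqueous formic acid/acetonitrile linear gradient 10% to 90% acetonitrile, per EEC Directive 79831 Annex V.A8. log P obtained from retention time by linear interpolation between unbranched alkan-2-ones (C3-C16) of known log P.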

Structure (SMILES)	logP [5]	Efficacy (Sphaerotheca fuliginea [1])	Efficacy (Alternaria solani)	Efficacy (Pyrenophora teres [2])	Efficacy (Sphaerotheca fuliginea [3])	Efficacy (Pyrenophora teres [4])	Efficacy (Uromyces appendiculatus)	Efficacy (Botrytis cinerea)	Efficacy (Alternaria brassicae)	Efficacy (Septoria tritici)	Efficacy (Puccinia recondita)
CC1CC(C)(C)C2CCCC(NC(=S)c3c(C(F)F)nn(C)c3F)C12 (mixture of isomers) [Example 18]		83%	80%	95%							
CCc1nn(C)c(F)c1C(=O)N(C1CC1)C(C)C1CC2CCC1C2 (mixture of isomers) [Example 95]		95%	100%	100%							
CC(C1CC2C=CC1C2)N(C(=O)c1cn(C)nc1C(F)F)C1CC1 (mixture of isomers) [Example 102]					100%	100%	92%	95%	92%	75%	90%
Cn1nc(C(F)F)c(C(=O)NC2CCC3CCCC32)c1Cl (centres unmarked) [Example 3]	3.09						100%	95%	90%	92%	75%
Cn1nc(C(F)F)c(C(=O)NC2CCCC3CCCCC32)c1F (centres unmarked) [Example 25]	3.60	88%	100%	95%	100%	86%	80%			96%	100%
CC1C(CNC(=S)c2c(C(F)F)nn(C)c2F)CC2CC1C2(C)C (centres unmarked) [Example 82]	4.82	93%	90%	95%							
Cc1nn(C)c(F)c1C(=O)N(C1CC1)C(C)C1CC2CCC1C2 (centres unmarked) [Example 96]	3.46	95%	100%	100%							
Cc1nn(C)c(F)c1C(=S)N(C1CC1)C(C)C1CC2CCC1C2 (centres unmarked) [Example 98]	4.34	93%	95%	100%							

Continued, in another order:

logP [5]	Structure (SMILES)	Efficacy (Sphaerotheca fuliginea [1])	Efficacy (Alternaria solani)	Efficacy (Pyrenophora teres [2])	Efficacy (Sphaerotheca fuliginea [3])	Efficacy (Pyrenophora teres [4])	Efficacy (Uromyces appendiculatus)	Efficacy (Botrytis cinerea)	Efficacy (Alternaria brassicae)	Efficacy (Septoria tritici)	Efficacy (Puccinia recondita)
4.90	Cn1nc(C(F)F)c(C(=O)N(CC2CCCC3CCCCC32)C2CC2)c1F (centres unmarked) [Example 65]				100%	100%	100%	100%	100%	100%	100%
4.37	Cn1cc(C(=O)N(CC2CCCC3CCCCC32)C2CC2)c(C(F)F)n1 (centres unmarked) [Example 66]				100%	100%	88%	99%	96%	100%	94%
4.69	CC1C(CN(C(=O)c2c(C(F)F)nn(C)c2F)C2CC2)CC2CC1C2(C)C (centres unmarked) [Example 77]	100%	95%	100%							
4.21	CC1C(CN(C(=O)c2cn(C)nc2C(F)F)C2CC2)CC2CC1C2(C)C (centres unmarked) [Example 78]	95%	100%	100%							
3.85	Cn1nc(C(F)F)c(C(=O)NCC2CCC3CC2C3(C)C)c1Cl (centres unmarked) [Example 83]	90%	95%	100%							

— patent US9725414B2, “Fungicidal N-bicycloalkyl and N-tricycloalkyl pyrazole-4-(thio)carboxamide derivatives” (priority 2011, dated 2017)
